Marks after values point to notes of the source that are not given here.
Tests used:
Assay type in all cases: in vivo
[1] = system: streptozotocin-induced diabetic mice; experiment: Fasting blood glucose in streptozotocin-induced diabetic mice (Study 2); conditions: for Fasting blood glucose: 10 mg/kg body weight orally; for Effect on STZ-induced increased sugar level (FBG), words: 10 mg/kg orally for 1 month, p<0.001 vs STZ
Experimental: Body weight, food intake, water intake, and fasting blood glucose (blood was collected following 12 hours fasting) were measured pre-induction of diabetes. Diabetes was induced by administering streptozotocin (50 mg/kg, body weight) in sodium citrate buffer, pH 4.5, intraperitoneally. Five days after streptozotocin administration fasting blood glucose was estimated (following 12 hours of fasting). Mice having blood glucose level 250±20 mg % was considered for the following study. The male and female mice were divided into the following four groups (n=8):
Following streptozotocin-induced hyperglycemia, treatment regimen was carried out for 1 month. 3-OH-DBP (Urolithin B) and 3,8-(OH)2-DBP (Urolithin A) each was separately suspended in 0.3% CMC and administered at a dose of 10 mg/kg body weight orally for 1 month. During the 1-month treatment, body weight and food and water intake were monitored at regular intervals. FBG (following 12 hours of fasting) was estimated twice at 15-day intervals. The results were expressed in terms of mean±SEM (n=8). The data were subjected to one-way ANOVA followed by Tukey's test using GraphPad Prism 4.0 software to establish statistical significance (*p<0.05, **p<0.01, ***p<0.001; ^# p<0.05, ^## p<0.01, ^### p<0.001).

[2] = system: streptozotocin-induced diabetic mice; experiment: Fasting blood glucose in streptozotocin-induced diabetic mice (Study 1); conditions: for Blood sugar level (FBG): 250 mg/kg b.w. orally; for Effect on STZ-induced increased sugar level (FBG), words: Neem 50, Neem 100, Neem 250, Met 250, vs STZ-induced diabetic mice
Experimental: (§1) Body weight, food intake, water intake, and fasting basal blood glucose level were measured before induction on diabetes. Diabetes was induced by single administration of streptozotocin (65 mg/kg body weight) in sodium citrate buffer, pH 4.5, intraperitoneally. Five days after streptozotocin administration, fasting blood glucose level was estimated. Mice having blood glucose levels of 230±20 mg % were considered for the study. The male and female mice each were divided into the following groups:
Following streptozotocin-induced hyperglycemia, the treatment regimen was carried out for two weeks. Neem extract was suspended in 0.3% sodium carboxymethylcellulose (“CMC”) and administered at a dose of 50 mg/kg b.w., 100 mg/kg b.w., and 250 mg/kg b.w. orally for two weeks. Similarly, metformin was suspended in 0.3% CMC and administered at a dose of 250 mg/kg b.w. orally for two weeks. During the treatment schedule, body weight and food and water intake were monitored at regular intervals. Fasting blood glucose (“FBG”), HbA1C, plasma cholesterol, and triglyceride levels were monitored every week for two weeks. The results were expressed in terms of mean±SEM (n=4, from each gender). The data were subjected to one-way ANOVA followed by Tukey's test using GraphPad Prism 4.0 software to establish statistical significance (*p<0.05, **p<0.01, ***p<0.001; ^# p<0.05, ^## p<0.01, ^### p<0.001).

[3] = system: streptozotocin-induced diabetic mice; experiment: HbA1C level in streptozotocin-induced diabetic mice (Study 1); conditions: for HbA1C level: 250 mg/kg b.w. orally
Experimental: as §1
Following streptozotocin-induced hyperglycemia, the treatment regimen was carried out for two weeks. Neem extract was suspended in 0.3% sodium carboxymethylcellulose (“CMC”) and administered at a dose of 50 mg/kg b.w., 100 mg/kg b.w., and 250 mg/kg b.w. orally for two weeks. Similarly, metformin was suspended in 0.3% CMC and administered at a dose of 250 mg/kg b.w. orally for two weeks. During the treatment schedule, body weight and food and water intake were monitored at regular intervals. […] The results were expressed in terms of mean±SEM (n=4, from each gender). The data were subjected to one-way ANOVA followed by Tukey's test using GraphPad Prism 4.0 software to establish statistical significance (*p<0.05, **p<0.01, ***p<0.001; ^# p<0.05, ^## p<0.01, ^### p<0.001).

[4] = system: streptozotocin-induced diabetic mice; experiment: Fasting blood glucose in streptozotocin-induced diabetic mice (Study 1); conditions: 250 mg/kg b.w. orally, Week 3
[5] = STZ-induced diabetic female mice, Day 5 (Post-Induction)
[6] = STZ-induced diabetic female mice, Day 15 of treatment
[7] = STZ-induced diabetic female mice, Day 30 of treatment
[8] = STZ-induced diabetic female mice, Pre-Induction
[9] = STZ-induced diabetic male mice, Day 5 (Post-Induction)
[10] = STZ-induced diabetic male mice, Day 15 of treatment
[11] = STZ-induced diabetic male mice, Day 30 of treatment
[12] = STZ-induced diabetic male mice, Pre-Induction
[13] = STZ-induced diabetic female mice, Week 2
[14] = STZ-induced diabetic male mice, Week 2

With O=c1oc2cc(O)ccc2c2ccc(O)cc12 [3,8-(OH)2-DBP, 3,8-dihydroxy-dibenzo-α-pyrone] the Fasting blood glucose [1, 5] was 253.2 ± 5.194*** mg %, the Fasting blood glucose [1, 6] was 166 ± 2.623***^, ### mg % and the Fasting blood glucose [1, 7] was 153.9 ± 9.953***^, ### mg %. For the same molecule, the Fasting blood glucose [1, 8] was 95.45 ± 12.67 mg %, the Fasting blood glucose [1, 9] was 252.2 ± 1.780 mg % and the Fasting blood glucose [1, 10] was 166 ± 5.276***^, ### mg %. The Fasting blood glucose [1, 11] was 156.7 ± 10.75***^, ### mg %, the Fasting blood glucose [1, 12] was 94.12 ± 7.811*** mg % and the “Effect on STZ-induced increased sugar level (FBG), words” value ([1]; female mice) was “attenuated the STZ-induced increased sugar level”. The “Effect on STZ-induced increased sugar level (FBG), words” value ([1]; male mice) was “attenuated the STZ-induced increased sugar level”.
For O=c1oc2cc(O)ccc2c2ccccc12 [3-OH-DBP, 3-hydroxy-dibenzo-α-pyrone], the Fasting blood glucose [1, 5] was 251.6 ± 1.280*** mg %, the Fasting blood glucose [1, 6] was 189.8 ± 2.690***^, ### mg % and the Fasting blood glucose [1, 7] was 147.3 ± 15.21***^, ### mg %. The Fasting blood glucose [1, 8] was 126.8 ± 3.848 mg %, the Fasting blood glucose [1, 9] was 254.6 ± 1.575 mg % and the Fasting blood glucose [1, 10] was 171 ± 6.586***^, ### mg %. The Fasting blood glucose [1, 11] was 134.2 ± 3.381***^, ### mg %, the Fasting blood glucose [1, 12] was 99.06 ± 14.73*** mg % and the “Effect on STZ-induced increased sugar level (FBG), words” value ([1]; female mice) was “attenuated the STZ-induced increased sugar level”. For the same molecule, the “Effect on STZ-induced increased sugar level (FBG), words” value ([1]; male mice) was “attenuated the STZ-induced increased sugar level”.
CN(C)C(=N)N=C(N)N [Metformin, metformin] was tested, and the “Blood sugar level (FBG)” value ([2]; STZ-induced diabetic female mice, Day 0) was 119.2 ± 15.5 ^ mg %, the “Blood sugar level (FBG)” value ([2]; STZ-induced diabetic female mice, Week 1) was 241.1 ± 22.19*** mg % and the “Blood sugar level (FBG)” value [2, 13] was 133.8 ± 9.04^## mg %. For the same molecule, the “Blood sugar level (FBG)” value ([2]; STZ-induced diabetic male mice, Day 0) was 117.3 ± 23.99 ^ mg %, the “Blood sugar level (FBG)” value ([2]; STZ-induced diabetic male mice, Week 1) was 269.2 ± 25.37*** mg % and the “Blood sugar level (FBG)” value [2, 14] was 133.4 ± 7.96**^, # mg %. For the same molecule, the “Effect on STZ-induced increased sugar level (FBG), words” value ([2]; female mice) was “attenuated the STZ-induced increased sugar level”, the “Effect on STZ-induced increased sugar level (FBG), words” value ([2]; male mice) was “attenuated the STZ-induced increased sugar level” and the HbA1C level [3, 13] was 5.53 ± 0.46%. For the same molecule, the HbA1C level ([3]; STZ-induced diabetic female mice, Week 3) was 3.08 ± 0.58^## %, the HbA1C level [3, 14] was 5.05 ± 0.51% and the HbA1C level ([3]; STZ-induced diabetic male mice, Week 3) was 4.40 ± 0.65^# %. The “Effect on STZ-induced increase in HbA1C level, words” value ([3]; male and female mice, Neem 50, Neem 100, Neem 250, Met 250, vs STZ-induced diabetic mice) was “attenuated the STZ-induced increased in HbA1C level”, the “Blood sugar level (FBG)” value ([4]; STZ-induced diabetic female mice) was 121.2 ± 8.192 mg % and the “Blood sugar level (FBG)” value ([4]; STZ-induced diabetic male mice) was 136.2 ± 4.89 mg %.
